Measurements from US7595401B2, “Therapeutic compounds and their use in cancer” (Myriad Pharmaceuticals, Inc., priority 2006, dated 2009).

These compounds were tested on purified human Hsp90 (assay: Binding Assay: fluorescence polarization with BODIPY-labeled geldanamycin). Conditions: 5 μM compound, BODIPY-GM 10 nM, Hsp90 30 nM.
Method in brief: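 Fluorescence polarization competition with BODIPY-geldanamycin (10 nM final) and human Hsp90 (30 nM final) in HEPES-KOH pH 7.3 buffer with molybdate, NP-40, DTT; 2% DMSO, overnight at room temperature. Read 485/530 nm; percent inhibition from mP normalized to DMSO controls, fluorescent-compound points excluded.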

SMILES | % Inhibition at 5 μM Compound Concentration [%]
Nc1ncn(CCC2CCN(C(=O)C3CC3(F)F)CC2)c2nc(Sc3cc4c(cc3Br)OCO4)nc1-2 (centres unmarked) [Example 525, 8-[(6-Bromo-1,3-benzodioxol-5-yl)thio]-3-(2-{1-[(2,2-difluorocyclopropyl)carbonyl]piperidin-4-yl}ethyl)-3 H-purin-6-amine] | 13.00
Nc1ncn(CCC2CCN(C(=O)C3(C(F)(F)F)CC3)CC2)c2nc(Sc3cc4c(cc3Br)OCO4)nc1-2 [Example 527] | 19.00
Cc1cc(=O)oc2cc(Sc3nc4c(N)ncn(CCC5CCN(C=O)CC5)c-4n3)ccc12 [Example 533, 4-(2-{6-Amino-8-[(4-methyl-2-oxo-2 H-chromen-7-yl)thio]-3 H-purin-3-yl}ethyl)piperidine-1-carbaldehyde] | 0.00
COc1cc(Sc2nc3c(N)ncn(CCC4CCN(C=O)CC4)c-3n2)c2ocnc2c1 [Example 535, 4-(2-{6-Amino-8-[(5-methoxy-1,3-benzoxazol-7-yl)thio]-3 H-purin-3-yl}ethyl)piperidine-1-carbaldehyde] | 1.00
COc1cc(Sc2nc3c(N)nc[n+](CCC4CCN(C=O)CC4)c3[nH]2)cc(OC)c1OC [Example 541, 4-(2-{6-Amino-8-[(3,4,5-trimethoxyphenyl)thio]-3 H-purin-3-yl}ethyl)piperidine-1-carbaldehyde] | 4.00
COC(=O)c1ccnc(Sc2nc3c(N)ncn(CCC4CCN(C=O)CC4)c-3n2)c1 [Example 543, Methyl 2-({6-amino-3-[2-(1-formylpiperidin-4-yl)ethyl]-3 H-purin-8-yl}thio)isonicotinate] | 0.00
Cc1ccsc1Sc1nc2c(N)ncn(CCC3CCN(C=O)CC3)c-2n1 [Example 547, 4-(2-{6-Amino-8-[(3-methyl-2-thienyl)thio]-3 H-purin-3-yl}ethyl)piperidine-1-carbaldehyde] | 12.00
CC(=O)Nc1ccc(Sc2nc3c(N)ncn(CCC4CCN(C=O)CC4)c-3n2)c(Cl)c1 [Example 549, N-[4-({6-Amino-3-[2-(1-formylpiperidin-4-yl)ethyl]-3 H-purin-8-yl}thio)-3-chlorophenyl]acetamide] | 11.00
Nc1ncn(CCC2CCN(C=O)CC2)c2nc(Sc3ncccc3Br)nc1-2 [Example 551, 4-(2-{6-Amino-8-[(3-bromopyridin-2-yl)thio]-3 H-purin-3-yl}ethyl)piperidine-1-carbaldehyde] | 0.00
Nc1ncn(CCC2CCN(C=O)CC2)c2nc(Sc3cc(OCc4ccccc4)c(OCc4ccccc4)cc3Br)nc1-2 [Example 554, 4-[2-(6-Amino-8-{[4,5-bis (benzyloxy)-2-bromophenyl]thio}-3 H-purin-3-yl)ethyl]piperidine-1-carbaldehyde] | 0.00

Same assay, conditions: BODIPY-GM 10 nM, Hsp90 30 nM

SMILES | IC50 [nM]
Nc1ncnc2c1nc(Sc1cc3c(cc1Br)OCO3)n2CCC1CCN(C(=O)C2CC2)CC1 [Example 514, 8-[(6-Bromo-1,3-benzodioxol-5-yl)thio]-9-{2-[1-(cyclopropylcarbonyl)piperidin-4-yl]ethyl}-9 H-purin-6-amine] | 110
CC1(C(=O)N2CCC(CCn3c(Sc4cc5c(cc4Br)OCO5)nc4c(N)ncnc43)CC2)CC1 [Example 516, 8-[(6-Bromo-1,3-benzodioxol-5-yl)thio]-9-(2-{1-[(1-methylcyclopropyl)carbonyl]piperidin-4-yl}ethyl)-9 H-purin-6-amine] | 600
CC1CC1C(=O)N1CCC(CCn2c(Sc3cc4c(cc3Br)OCO4)nc3c(N)ncnc32)CC1 (centres unmarked) [Example 518, 8-[(6-Bromo-1,3-benzodioxol-5-yl)thio]-9-(2-{1-[(2-methylcyclopropyl)carbonyl]piperidin-4-yl}ethyl)-9 H-purin-6-amine] | 140
CC1(C)C(C(=O)N2CCC(CCn3c(Sc4cc5c(cc4Br)OCO5)nc4c(N)ncnc43)CC2)C1(C)C [Example 520, 8-[(6-Bromo-1,3-benzodioxol-5-yl)thio]-9-(2-{1-[(2,2,3,3-tetramethylcyclopropyl)carbonyl]piperidin-4-yl}ethyl)-9 H-purin-6-amine] | > 2000
Nc1ncnc2c1nc(Sc1cc3c(cc1Br)OCO3)n2CCC1CCN(C(=O)[C@H]2C[C@@H]2F)CC1 [Example 522, 8-[(6-Bromo-1,3-benzodioxol-5-yl)thio]-9-[2-(1-{[(2S)-2-fluorocyclopropyl]carbonyl}piperidin-4-yl)ethyl]-9 H-purin-6-amine] | 53
Nc1ncnc2c1nc(Sc1cc3c(cc1Br)OCO3)n2CCC1CCN(C(=O)C2CC2(F)F)CC1 (centres unmarked) [Example 524, 8-[(6-Bromo-1,3-benzodioxol-5-yl)thio]-9-(2-{1-[(2,2-difluorocyclopropyl)carbonyl]piperidin-4-yl}ethyl)-9 H-purin-6-amine] | 100
Nc1ncnc2c1nc(Sc1cc3c(cc1Br)OCO3)n2CCC1CCN(C(=O)C2(C(F)(F)F)CC2)CC1 [Example 526, 8-[(6-Bromo-1,3-benzodioxol-5-yl)thio]-9-[2-(1-{[1-(trifluoromethyl)cyclopropyl]carbonyl}piperidin-4-yl)ethyl]-9 H-purin-6-amine] | 300
CC(=O)N1CCC(CCn2c(Sc3ccc4c(c3)CCO4)nc3c(N)ncnc32)CC1 [Example 528, 9-[2-(1-Acetylpiperidin-4-yl)ethyl]-8-(2,3-dihydro-1-benzofuran-5-ylthio)-9 H-purin-6-amine] | > 5000
CC(=O)N1CCC(CCn2c(Sc3cc(Br)c4c(c3)CCO4)nc3c(N)ncnc32)CC1 [Example 530, 9-[2-(1-Acetylpiperidin-4-yl)ethyl]-8-[(7-bromo-2,3-dihydro-1-benzofuran-5-yl)thio]-9 H-purin-6-amine] | 2500
Cc1cc(=O)oc2cc(Sc3nc4c(N)ncnc4n3CCC3CCN(C=O)CC3)ccc12 [Example 532, 4-(2-{6-Amino-8-[(4-methyl-2-oxo-2 H-chromen-7-yl)thio]-9 H-purin-9-yl}ethyl)piperidine-1-carbaldehyde] | 5000
COc1cc(Sc2nc3c(N)ncnc3n2CCC2CCN(C=O)CC2)c2ocnc2c1 [Example 534, 4-(2-{6-Amino-8-[(5-methoxy-1,3-benzoxazol-7-yl)thio]-9 H-purin-9-yl}ethyl)piperidine-1-carbaldehyde] | 5000
COc1ccc([N+](=O)[O-])cc1Sc1nc2c(N)ncnc2n1CCC1CCN(C=O)CC1 [Example 536, 4-(2-{6-Amino-8-[(2-methoxy-5-nitrophenyl)thio]-9 H-purin-9-yl}ethyl)piperidine-1-carbaldehyde] | > 5000
COc1ccc([N+](=O)[O-])cc1Sc1nc2c(N)ncn(CCC3CCN(C=O)CC3)c-2n1 [Example 537, 4-(2-{6-Amino-8-[(2-methoxy-5-nitrophenyl)thio]-3 H-purin-3-yl}ethyl)piperidine-1-carbaldehyde] | > 5000
COc1ccnc(Sc2nc3c(N)ncnc3n2CCC2CCN(C=O)CC2)c1 [Example 538, 4-(2-{6-Amino-8-[(4-methoxypyridin-2-yl)thio]-9 H-purin-9-yl}ethyl)piperidine-1-carbaldehyde] | 1600
Nc1ncnc2c1nc(Sc1ccc3occc3c1)n2CCC1CCN(C=O)CC1 [Example 539, 4-{2-[6-Amino-8-(1-benzofuran-5-ylthio)-9 H-purin-9-yl]ethyl}piperidine-1-carbaldehyde] | > 5000
COc1cc(Sc2nc3c(N)ncnc3n2CCC2CCN(C=O)CC2)cc(OC)c1OC [Example 540, 4-(2-{6-Amino-8-[(3,4,5-trimethoxyphenyl)thio]-9 H-purin-9-yl}ethyl)piperidine-1-carbaldehyde] | > 5000
COC(=O)c1ccnc(Sc2nc3c(N)ncnc3n2CCC2CCN(C=O)CC2)c1 [Example 542, Methyl 2-({6-amino-9-[2-(1-formylpiperidin-4-yl)ethyl]-9 H-purin-8-yl}thio)isonicotinate] | > 5000
COc1cc(Sc2nc3c(N)ncnc3n2CCC2CCN(C=O)CC2)ncn1 [Example 544, 4-(2-{6-Amino-8-[(6-methoxypyrimidin-4-yl)thio]-9 H-purin-9-yl}ethyl)piperidine-1-carbaldehyde] | 1400
Nc1ncnc2c1nc(Sc1cc3c(cc1Br)OCCO3)n2CCC1CCN(C=O)CC1 [Example 545, 4-(2-{6-Amino-8-[(7-bromo-2,3-dihydro-1,4-benzodioxin-6-yl)thio]-9 H-purin-9-yl}ethyl)piperidine-1-carbaldehyde] | 50
Cc1ccsc1Sc1nc2c(N)ncnc2n1CCC1CCN(C=O)CC1 [Example 546, 4-(2-{6-Amino-8-[(3-methyl-2-thienyl)thio]-9 H-purin-9-yl}ethyl)piperidine-1-carbaldehyde] | > 5000
CC(=O)Nc1ccc(Sc2nc3c(N)ncnc3n2CCC2CCN(C=O)CC2)c(Cl)c1 [Example 548, N-[4-({6-Amino-9-[2-(1-formylpiperidin-4-yl)ethyl]-9 H-purin-8-yl}thio)-3-chlorophenyl]acetamide] | > 5000
Nc1ncnc2c1nc(Sc1ncccc1Br)n2CCC1CCN(C=O)CC1 [Example 550, 4-(2-{6-Amino-8-[(3-bromopyridin-2-yl)thio]-9 H-purin-9-yl}ethyl)piperidine-1-carbaldehyde] | > 5000
Nc1ncnc2c1nc(Sc1cc(OCc3ccccc3)c(OCc3ccccc3)cc1Br)n2CCC1CCN(C=O)CC1 [Example 553, 4-[2-(6-Amino-8-{[4,5-bis (benzyloxy)-2-bromophenyl]thio}-9 H-purin-9-yl)ethyl]piperidine-1-carbaldehyde] | > 5000
Nc1ncnc2c1nc(Sc1ccc3c(c1)CCC3=O)n2CCC1CCN(C=O)CC1 [Example 555, 4-(2-{6-Amino-8-[(1-oxo-2,3-dihydro-1 H-inden-5-yl)thio]-9 H-purin-9-yl}ethyl)piperidine-1-carbaldehyde] | 700
COc1c(Sc2nc3c(N)ncnc3n2CCC2CCN(C=O)CC2)cc(C)c2c1CCC2 [Example 556, 4-(2-{6-Amino-8-[(4-methoxy-7-methyl-2,3-dihydro-1 H-inden-5-yl)thio]-9 H-purin-9-yl}ethyl)piperidine-1-carbaldehyde] | 2000
